Experiments:
Hsp90AB1 [1] = target: T1, Hsp90AB1 (Homo sapiens, UniProt P08238); test: SPR (Biacore, CM5 chip with immobilized protein); also competes with CE-P in HUVEC lysate pull-down; format: binding
T1 construct: recombinant human Hsp90AB1 protein

Hsp90AB1 [2] = target: T1, Hsp90AB1; test: SPR (Biacore, CM5 chip with immobilized protein); also click pull-down of recombinant protein and from HUVEC lysate; format: binding

T1 sequence (P08238 2-724): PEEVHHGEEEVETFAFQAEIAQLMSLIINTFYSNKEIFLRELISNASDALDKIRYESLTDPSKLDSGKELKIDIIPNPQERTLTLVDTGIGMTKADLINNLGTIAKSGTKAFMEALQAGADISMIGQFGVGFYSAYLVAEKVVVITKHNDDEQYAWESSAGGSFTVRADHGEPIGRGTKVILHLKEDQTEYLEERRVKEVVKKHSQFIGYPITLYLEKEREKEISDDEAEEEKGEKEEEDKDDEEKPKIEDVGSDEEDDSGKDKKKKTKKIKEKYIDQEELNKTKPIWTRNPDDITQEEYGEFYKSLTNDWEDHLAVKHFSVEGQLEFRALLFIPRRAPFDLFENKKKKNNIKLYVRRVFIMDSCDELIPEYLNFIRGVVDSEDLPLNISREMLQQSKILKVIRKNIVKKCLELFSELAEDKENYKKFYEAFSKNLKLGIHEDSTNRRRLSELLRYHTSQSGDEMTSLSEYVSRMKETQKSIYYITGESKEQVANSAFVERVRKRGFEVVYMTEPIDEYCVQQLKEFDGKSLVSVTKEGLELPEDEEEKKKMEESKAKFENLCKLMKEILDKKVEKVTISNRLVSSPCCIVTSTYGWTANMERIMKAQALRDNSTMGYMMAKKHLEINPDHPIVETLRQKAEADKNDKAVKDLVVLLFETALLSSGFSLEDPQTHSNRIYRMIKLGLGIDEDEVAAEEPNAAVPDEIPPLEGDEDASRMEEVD

Kd (Hsp90AB1 [1]) [µM] | Kd (Hsp90AB1 [2]) [µM] | Compound
2.34 | – | CC1(C)CC[C@]2(C(=O)O)CC[C@]3(C)C(=CC[C@@H]4[C@@]5(C)CC[C@H](O[C@@H]6O[C@H](C(=O)O)[C@@H](O)[C@H](O)[C@H]6O)C(C)(C)[C@@H]5CC[C@]43C)[C@@H]2C1 [CE, Calenduloside E]
– | 23.4 | C#CCNC(=O)C12CCC(C)(C)C[C@H]1C1=CC[C@@H]3[C@@]4(C)CC[C@H](O[C@@H]5O[C@H](C(=O)O)[C@@H](O)[C@H](O)[C@H]5O)C(C)(C)[C@@H]4CC[C@@]3(C)[C@]1(C)CC2 (some centres unmarked) [VI, CE-P]

Source: publication PMC5974765, “Targets Fishing and Identification of Calenduloside E as Hsp90AB1: Design, Synthesis, and Evaluation of Clickable Activity-Based Probe” (Frontiers in Pharmacology, 2018)
